According to patent publication US12303587B2, “Extract of Moringa peregrina seed cake, method for obtaining same and use thereof in cosmetic or nutricosmetic compositions” (AGENCE FRANCAISE POUR LE DEVELOPPEMENT D'AL ULA, priority 2020, dated 2025):
In brackets after ≈: the same amount, converted by molar mass.

Columns and labels:
[1] = system: mouse embryo fibroblasts of the Balb/c 3T3 clone 31 line; test: In vitro phototoxicity test 3T3 NRU; format: cell-based; settings: BALB/c3T3, light or radiation study
Procedure: The cytotoxicity is evaluated by determining cell viability using a vital stain: neutral red, 24 hours after treatment with the reference elements and the extract of M. peregrina according to the invention with or without UVA irradiation. […] The positive control is a chlorpromazine solution (CAS No.: 69-09-0). The negative control is a diluent for the test extract and for the reference (buffered saline solution±1% solvent). The peptide hydrolyzate was tested at eight concentrations in at least four culture wells per concentration studied, in the presence or absence of UVA. […]
The seeded plates were incubated for 24 hours at 37° C. and 5% CO2. […] The pH of the highest concentration was measured; it was between 6.5 and 7.8. […] The spectral irradiance of the test device was measured in the wavelength range from 250 to 700 nanometers with a calibrated spectroradiometer.
One of the two plates was irradiated with its cover on at room temperature, and the other plate was protected from UVA and was maintained at room temperature during the irradiation. […] The next day, the cell viability (growth, morphology, monolayer integrity) was evaluated by observations using a phase-contrast microscope. […] The absorbance values were measured at 450 nm.

DKK-1 = DKK-1 synthesis and release, ELISA; format: cell-based, human; settings: tested at 100 nm; p<0.01
Procedure: The object of this study is to evaluate the effect of the compound known as “peregrina peptide hydrolyzate” on DKK-1 synthesis and release in a model composed of normal human fibroblasts in monolayer culture.
Protocol: Human fibroblast cells were obtained from a donor. To perform the experiments, the fibroblasts were grown as a monolayer culture until confluence was reached. 100 nM dexamethasone was used as a reference inducer of DKK-1 synthesis and release.
[…] were incubated for 48 hours in the absence (control) or presence of reference product or test product: Peregrina peptide hydrolyzate: 0.01%; 0.1% and 0.5% (v/v).
At the end of the incubation, the incubation media were removed to perform the DKK-1 release measurement.
The test compound “peregrina peptide hydrolyzate” was diluted directly in the incubation medium so as to reach the various concentrations described above.
At the end of the 48-hour incubation period, the DKK-1 released into the incubation media was quantified by means of a specific sensitive ELISA kit.
At the end of the incubation period, the proteins contained in the cell lyzates were quantified by means of a spectrocolorimetric method (Bradford method).
The results are expressed as ng DKK-1 per mg of protein (mean±S.D.).

SMILES | IC50 ([1]; in the absence of UVA) [µg/mL] | IC50 ([1]; in the presence of UVA) [µg/mL] | increase of released DKK-1 relative to the control (DKK-1) [%]
CN(C)CCCN1c2ccccc2Sc2ccc(Cl)cc21 [Chlorpromazine, chlorpromazine] | 7 to 90 (≈ 22 to 282 µM) | 0.1 to 2 | 
C[C@@H]1C[C@H]2[C@@H]3CCC4=CC(=O)C=C[C@]4(C)[C@@]3(F)[C@@H](O)C[C@]2(C)[C@@]1(O)C(=O)CO [dexamethasone] |  |  | 181.8
